Laboratory results as given in patent publication US12569563B2, “Selective HDAC6 degraders and methods of use thereof” (DANA-FARBER CANCER INSTITUTE, INC., priority 2019, dated 2026).

What was measured:
[1] = system: other identified HDAC proteins; experiment: Multiplexed TMT mass spectrometry proteomics in Kelly cells, other HDAC abundance; format: cell-based, human; conditions: 1 μM, 2, 4, 8, and 16 hours
Protocol: Lysis buffer (8 M Urea, 50 mM NaCl, 50 mM 4-(2hydroxyethyl)-1-piperazineethanesulfonic acid (EPPS) pH 8.5, protease and phosphatase inhibitors from Roche®) were added to the cell pellets and homogenized by 20 passes through a 21 gauge (1.25 in. long) needle to achieve a cell lysate with a protein concentration between 1-4 mg mL^−1. A micro-BCA assay (Pierce™) was used to determine the final protein concentration in the cell lysate. 200 μg of protein for each sample were reduced and alkylated as described above.
Proteins were precipitated using methanol/chloroform. Four volumes of methanol were added to the cell lysate, followed by one volume of chloroform, and finally three volumes of water. The mixture was vortexed and centrifuged to separate the chloroform phase from the aqueous phase. […]
Anhydrous ACN was added to each peptide sample to a final concentration of 30% v/v, and labeling was induced with the addition of TMT reagent to each sample at a ratio of 1:4 peptide:TMT label. […] The sample channels were combined at a 1:1:1:1:1:1:1:1:1:1:1 ratio, desalted using Cis solid phase extraction cartridges (Waters) and analyzed by LC-MS for channel ratio comparison. Samples were then combined using the adjusted volumes determined in the channel ratio analysis and dried down in a speed vacuum. […]

CRBN = target: T1, CRBN (Homo sapiens, UniProt Q96SW2); experiment: Cellular CRBN engagement assay (competition with dBET6, BRD4BD2-eGFP reporter); format: cell-based; conditions: Flip-In 293 BRD4BD2-eGFP cells, 100 nM dBET6, 5 h
T1 construct: endogenous in cells; host or cells: Flp-In 293 cells stably expressing BRD4BD2-eGFP-P2A-mCherry
Description: The cellular CRBN engagement assay measures the cellular binding affinity which is the combination of the compound's cell permeability and their binding affinity to CRBN. This is done by measuring the ability of thalidomide-based degrader molecules to compete with pan-BET bromodomain degrader dBET6 (Nowak et al., Nat. Chem. Biol. 14:706-714 (2018)) for CRBN binding in cells. If no degrader compound is present in the cell, BRD4BRD2-eGFP is degraded by dBET6 via the proteasome system. […]
Cells were seeded at 30-50% confluency in either 24, 48 or 96 well plates (3524, 3548, 3596 respectively, Costar) a day before compound treatment. The inventive compounds were titrated in the presence of 100 nM dBET6 and then were incubated with cells for 5 h following trypsinization and resuspension in DMEM media, transferred into 96-well plates (353910, Falcon®) and analyzed by flow cytometer (Guava® easyCyte™ HT, Millipore®). Signal from at least 3000 events per well was acquired and the eGFP and mCherry florescence monitored. Data was analyzed using FlowJo® (FlowJo®, LCC). Forward and side scatter outliers, frequently associated with cell debris, were removed leaving >90% of total cells, followed by removal of eGFP and mCherry signal outliers, leaving 88-90% of total cells creating the set used for quantification. […]

Row | IC50 (CRBN) [µM] | SMILES | change in cellular protein levels of other identified HDAC proteins (heat map FIG. 5) [1]
1 | – | CN(C(=O)CCCNc1cccc2c1C(=O)N(C1CCC(=O)NC1=O)C2=O)c1ccc(NC(=O)CCCCCCC(=O)NO)cc1 (centres unmarked) [Compound 1, N^1-(4-(4-((2-(2,6-dioxopiperidin-3-yl)-1,3-dioxoisoindolin-4-yl)amino)-N-methylbutanamido)phenyl)-N^8-hydroxyoctanediamide] | did not affect the cellular protein levels of the other identified HDAC proteins
2 | 1.63 | CN(C(=O)CCCCCCCNc1cccc2c1C(=O)N(C1CCC(=O)NC1=O)C2=O)c1ccc(NC(=O)CCCCCCC(=O)NO)cc1 (centres unmarked) [Compound 3, N^1-(4-(8-((2-(2,6-dioxopiperidin-3-yl)-1,3-dioxoisoindolin-4-yl)amino)-N-methyloctanamido)phenyl)-N^8-hydroxyoctanediamide] | –
